The structures appear in SMILES notation.

This data set can be described thus: gradient 5% acetonitrile 3 min, to 50% in 2 min, to 85% in 15 min, held 3 min, 100 µL/min. The following applies: column: Zorbax Extend-C18 2.1 x 50 mm; eluents: water / acetonitrile, 0.1% formic acid. The method in brief: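 Retention times of pure standards were taken from adduct peaks that were selected by computer and manually inspected. Over 3 months, mixtures of ~100 molecules were run by HPLC–quadrupole time-of-flight mass spectrometry in positive and negative ionization mode. The Zorbax Extend-C18 column (2.1 × 50 mm, 1.8 μm) ran at 100 μL/min in water and acetonitrile, each containing 0.1% formic acid, with 40 μL dead volume and 900 μL dwell volume.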
In turn, `CCCN1C(=O)c2cc(S(=O)(=O)N3CCCCCC3)ccc2Oc2cccnc21` registered an RP-LC retention time of 1180 s.

`COc1ccc(C(=O)Nc2cccn3nc(C4CC4)nc23)cc1` displayed an RP-LC retention time of 839 s.

Consider `CC(C)Cn1cc(NC(=O)N2CCN(c3ccccn3)CC2)c2ccccc2c1=O`, for which the RP-LC retention time was 573 s.

The compound `CCOC(=O)c1sc(NC(=O)C2CCC2)nc1-c1ccccc1` gave an RP-LC retention time of 1010 s.

Take `Cc1ccc(NC(=O)Cn2c(=O)nc(N3CCC(C)CC3)c3ccccc32)c(C)c1`: the RP-LC retention time was found to be 913 s.

In turn, `O=C(c1ccc(Cl)c(Cl)c1)N1CCN(Cc2nncn2C2CCCCC2)CC1` had an RP-LC retention time of 708 s.

Regarding `CCCCOc1ccc(CNC(=O)CN2CC=C(c3cnn(-c4ccccc4)c3)CC2)cc1`, the RP-LC retention time amounted to 826 s.

With `O=C(CCCS(=O)(=O)Cc1ccccc1)Nc1ccc2c(c1)OCCO2`, the RP-LC retention time was determined as 700 s.

`O=C(C1CCCN(c2nc3cccnc3s2)C1)N1CCN(c2cccc(Cl)c2)CC1` (stereo not drawn) displayed an RP-LC retention time of 1010 s.

For the compound `N#Cc1cccc(NC(=O)C2CCN(S(=O)(=O)c3cc(-c4noc(C5CC5)n4)cs3)CC2)c1`, the RP-LC retention time is 994 s.

`CN1C(=O)c2ccccc2Oc2ccc(C(=O)N3CCOCC3)cc21` had an RP-LC retention time of 675 s.

As for `CCOc1cc(C(=O)NC(C)C(=O)Nc2nc3ccccc3[nH]2)cc(OCC)c1OCC` (stereo not drawn), the RP-LC retention time was 745 s.

The compound `COc1ccc(C)cc1NC(=O)Cn1nc2nc(N3CCCCC3C)ccn2c1=O` (stereo not drawn) had an RP-LC retention time of 840 s.

With `CCc1cccc(C)c1NC(=O)Cn1c(=O)n(-c2cccc(C)c2)c(=O)c2c1cc(C)n2C`, the RP-LC retention time is 881 s.

`O=C(NC1CCCCC1)C1CCN(C(=O)c2ncn3c2COC(c2ccc(F)cc2)C3)CC1` (stereo not drawn): the RP-LC retention time is 784 s.

`Cc1noc(/C=C/c2ccc(F)cc2F)c1S(=O)(=O)N1CCC(C(=O)Nc2nccs2)CC1`: the RP-LC retention time is 1050 s.

Compound `CCCn1cc(S(=O)(=O)Nc2cc(OC)cc(OC)c2)c2cccnc21` registered an RP-LC retention time of 860 s.

Take `Cc1cc(C)cc(N2CCCn3c2nc2c3c(=O)n(C)c(=O)n2C)c1`: the RP-LC retention time turned out to be 841 s.

Take `COc1cccc(CNC(=O)COc2cc(C)nc(N3CCN(c4ccccc4)CC3)n2)c1OC`: the RP-LC retention time is 783 s.

On to `CCCC(C)NC(=O)c1ccc2c(c1)CCCN2S(C)(=O)=O` (stereo not drawn), for which the RP-LC retention time worked out at 827 s.

Turning to `COC(=O)c1ccc(C(=O)OC)c(NC(=O)CSc2ncnc3sc(C)c(C)c23)c1`, the RP-LC retention time is 1130 s.

Consider `Cn1c(SCC(N)=O)nnc1-c1sc2cc(Cl)ccc2c1Cl`, for which the RP-LC retention time worked out at 702 s.

In turn, `CCOc1ccc(S(=O)(=O)Nc2cc(-c3cn4ccc(C)cc4n3)ccc2C)cc1` had an RP-LC retention time of 718 s.

For `Cc1ccc(-n2nc3c(N4CCCC(C(=O)NCCCN5CCCC5=O)C4)nnc(C)c3c2C)cc1` (stereo not drawn), the RP-LC retention time is 627 s.

`CN1c2cc(C(=O)N3CCN(c4ccccc4)CC3)ccc2C(=O)N2CCCCC21` (stereo not drawn) gave an RP-LC retention time of 823 s.

In the case of `COc1cccc(NC(=O)NCCCN2CCN(c3ccccc3)CC2)c1OC`, the RP-LC retention time is 582 s.

Turning to `CCc1nn2c(ncc3c(=O)n(-c4nccs4)ccc32)c1-c1ccc(F)cc1`, the RP-LC retention time turned out to be 1320 s.

`Cn1c(N2CCCC(C(=O)NCC3CCN(Cc4ccc(F)cc4)CC3)C2)cc(=O)n(C)c1=O` (stereo not drawn) registered an RP-LC retention time of 590 s.

In the case of `CC1CCN(Cc2csc(N3CCN(C(=O)CSc4ccccc4)CC3)n2)CC1`, the RP-LC retention time was determined as 1130 s.

Compound `O=C(COc1ccc(F)cc1)N1CCN(CC(F)(F)F)CC1` displayed an RP-LC retention time of 771 s.

The compound `Cn1nc(-c2nc(-c3ccc(F)cc3)no2)c2c1CCN(C(=O)NC1CCCCC1)C2` came in with an RP-LC retention time of 979 s.

As for `Cc1c(C(=O)NCC2CC2)cnn1-c1cc(-c2nc(C(C)C)no2)ccn1`, the RP-LC retention time came to 1020 s.

`Cn1c(=O)c2nc(SCCC(=O)Nc3ccc(Br)cc3)n(C)c2n(C)c1=O` yielded an RP-LC retention time of 757 s.

In turn, `O=C(Nc1c(-c2ccccc2)nc2ccccn12)c1ccco1` had an RP-LC retention time of 598 s.

On to `Cc1ccc(NS(=O)(=O)c2ccc(-c3nnc(C4CCC4)o3)o2)c(F)c1`, for which the RP-LC retention time is 925 s.

For `COC(=O)c1ccc(CSc2nnc(N3CCN(c4ccccc4OC)CC3)s2)o1`, the RP-LC retention time came to 894 s.

On to `Cc1c(CNCCc2ccco2)c(C(=O)O)c(C)n1Cc1ccc(F)cc1`, for which the RP-LC retention time came out at 709 s.

`CCNC(=O)C1CCCN(c2nc3ncn(CC(=O)Nc4cc(Cl)ccc4C)c(=O)c3s2)C1` (stereo not drawn) returned an RP-LC retention time of 741 s.

As to `COc1ccc(S(=O)(=O)N2CCCC(C(=O)Nc3ccc4c(c3)OCO4)C2)cc1Cl` (stereo not drawn), the RP-LC retention time is 941 s.

In turn, `CN1c2ccc(F)cc2C(=O)NC12CCN(C(=O)c1ccc(F)c(F)c1)CC2` returned an RP-LC retention time of 776 s.

For the compound `Cc1oc(-c2[nH]ncc2C(=O)N(C)C)cc1S(=O)(=O)Nc1cccc(C(F)(F)F)c1`, the RP-LC retention time stood at 763 s.

For `Clc1ccc2nnc(Cc3ccccc3)n2n1`, the RP-LC retention time turned out to be 739 s.

Take `Fc1ccccc1-c1noc(-c2ncn3c2COC(c2ccccc2Cl)C3)n1` (stereo not drawn): the RP-LC retention time is 1080 s.

The compound `O=C(NCc1cccnc1-c1ccc(F)cc1)c1cccc(Br)c1` registered an RP-LC retention time of 734 s.

In turn, `CC(C)COc1cc(=O)n2c(c1C(=O)NCC1CC1)CCCCC2` yielded an RP-LC retention time of 708 s.

`O=C(Nc1ccc(Cl)cc1)c1cnc(-c2ccc(F)cc2)nc1-c1ccncc1`: the RP-LC retention time is 986 s.

The compound `Cc1cccc(CN2CCc3nc(C)n(CC(=O)Nc4ccc5c(c4)OCO5)c(=O)c3C2)c1` showed an RP-LC retention time of 575 s.

For `COc1cccc(-c2cc(C(=O)N3CC(c4nc(-c5cccs5)no4)C3)[nH]n2)c1`, the RP-LC retention time worked out at 798 s.

In the case of `CCOC(=O)CNC(=O)N1CCCC1c1ccc(OC)cc1` (stereo not drawn), the RP-LC retention time came out at 728 s.

In turn, `CCC(C)NC(=O)N1CCC2(CC1)Nc1cc(F)ccc1-n1cccc12` (stereo not drawn) had an RP-LC retention time of 954 s.

The compound `COc1ccc(C(C)NC(=O)c2cn3c(n2)COCC3)cc1OC` (stereo not drawn) showed an RP-LC retention time of 608 s.

Compound `Cc1nnc(-c2ccc3ccn(CC(=O)NCc4ccc(N(C)C)cc4)c3c2)o1` registered an RP-LC retention time of 632 s.

Compound `CCOC(=O)c1nc(N(C)c2ccccc2C)c2ccccc2n1` returned an RP-LC retention time of 916 s.

In turn, `Cn1nccc1C(=O)N1CCC(Cc2nc(C3CC3)n[nH]2)C1` (stereo not drawn) had an RP-LC retention time of 578 s.

`Cc1cc(=O)n(CC(=O)Nc2cc(Cl)ccc2C)c(N2CCOCC2)n1` came in with an RP-LC retention time of 736 s.

Compound `CC1CCC2(CC1)NC(=O)N(CC(=O)NCc1ccc(F)cc1)C2=O` (stereo not drawn) yielded an RP-LC retention time of 801 s.

`CCN1C(=O)c2c(C(=O)NCc3ccc(F)cc3)ncn2CC1(C)C(=O)NC1CCCC1` (stereo not drawn): the RP-LC retention time turned out to be 764 s.

In turn, `Cc1ccc(-c2nnc3ccc(N4CCC(C(=O)NC5CC5)CC4)nn23)cc1` registered an RP-LC retention time of 736 s.

As for `CCOc1ccc(C(=O)NC2CCN(c3cc(-c4cccs4)[nH]n3)C2)cc1OCC` (stereo not drawn), the RP-LC retention time came to 755 s.

The compound `CCN(CCCc1ccccc1)CCCc1ccccc1` came in with an RP-LC retention time of 874 s.

Regarding `Cc1cc(=O)n(CC(=O)Nc2ccc(Br)cc2)c(N2CCCCC2)n1`, the RP-LC retention time was found to be 716 s.

In turn, `Cc1cccc(N2CCN(c3ccc4cc(S(=O)(=O)N5CCCCC5C)ccc4n3)CC2)c1C` (stereo not drawn) gave an RP-LC retention time of 1330 s.

Turning to `CCN1C(=O)c2ccccc2Oc2ccc(C(=O)NCCc3ccccc3)cc21`, the RP-LC retention time amounted to 845 s.

Compound `CCOc1cc2c(cc1OCC)C1C(C(=O)N3CCN(CC)CC3)c3ccccc3C(=O)N1CC2` (stereo not drawn) came in with an RP-LC retention time of 638 s.

Compound `CCn1ccc2c(cc(C(=O)Nc3cccc(C(F)(F)F)c3)n2C)c1=O` registered an RP-LC retention time of 880 s.

`COc1ccccc1N1CCN(C(=O)C2CCN(c3nc(NC(C)=O)ns3)CC2)CC1` returned an RP-LC retention time of 641 s.

With `CCOC(=O)c1[nH]c(C)c(C(=O)N2CCC(CC(=O)NC3CCCCC3)CC2)c1C`, the RP-LC retention time came to 719 s.

On to `CC1CCN(c2cc3c(cc2NC(=O)c2ccco2)n(C)c(=O)c(=O)n3C)CC1`, for which the RP-LC retention time came out at 632 s.

As for `COCCNS(=O)(=O)c1cc(-c2nc(CC(C)C)cs2)cs1`, the RP-LC retention time was 1010 s.

The compound `COc1cc(C(=O)N2CCC3(CC2)Nc2ccccc2-n2cccc23)cc(OC)c1OC` showed an RP-LC retention time of 902 s.

The compound `O=C(CS(=O)(=O)Cc1ccccc1)Nc1nc2cc3c(cc2s1)OCO3` had an RP-LC retention time of 790 s.

Regarding `O=C(CN1CCN(Cc2ccc(F)cc2)C1=O)NCc1ccc(N2CCOCC2)cc1`, the RP-LC retention time was 712 s.

Take `CCSc1nc(-c2ccccc2)c(NC(=O)c2ccc(S(=O)(=O)N(C)C)cc2)s1`: the RP-LC retention time is 1000 s.

`CN1CC(=O)N(CC(=O)Nc2ccc(OC(F)(F)F)cc2)c2ccccc2C1=O`: the RP-LC retention time was 777 s.

`Cc1ccc(N2C=C(C(=O)N3CCOCC3)S(=O)(=O)c3ccc(F)cc32)cc1` gave an RP-LC retention time of 814 s.

The compound `O=C(CN1C(=O)C2CCCCN2c2ccc(S(=O)(=O)N3CCCCC3)cc21)NC1CCCCC1` (stereo not drawn) registered an RP-LC retention time of 1030 s.

`CCCn1cc2c3c(cccc31)CN(C(=O)Nc1cc(OC)c(OC)c(OC)c1)CC2` had an RP-LC retention time of 970 s.

With `Cc1cccc(OCC(=O)N2CCCC(c3n[nH]c(C4CC4)n3)C2)c1` (stereo not drawn), the RP-LC retention time worked out at 687 s.

The record behind these values is the METLIN SMRT retention time set (Domingo-Almenara et al. 2019).
